For 38 compounds, MIC results are on record in patent US8481544B2, “Antibacterial compositions” (Biota Europe Limited, priority 2006, dated 2013).

Values after ≈ are worked out from the molar mass of the structure shown.

The test system of the assay is Enterococcus faecalis ATCC 29212. Kind of assay: MIC against Enterococcus faecalis ATCC 29212. It is filed as cell-based. As to conditions: ATCC29212; Enterococcus faecalis ATCC 29212; read-out: MICs against Enterococcus faecalis, Activity. How it is done:
Institute. Methods for Dilution Antimicrobial Susceptibility Tests for Bacteria That Grow Aerobically; Approved Standard—Seventh Edition. Document M7-A7. CLSI, Wayne, Pa., 2006; Clinical Laboratories and Standards Institute. Methods for Antimicrobial Susceptibility Testing of Anaerobic Bacteria; Approved Standard—Sixth Edition. Document M11-A6. CLSI, Wayne, Pa., 2004).
Compounds of this invention were tested for antimicrobial activity by susceptibility testing in liquid or on solid media. MICs for compounds against each strain were determined by the broth microdilution or agar dilution method according to the guidelines of the Clinical Laboratories and Standards Institute, formerly the National Committee for Clinical Laboratory Standards (Clinical Laboratories and Standards Institute. Methods for Dilution Antimicrobial Susceptibility Tests for Bacteria That Grow Aerobically; Approved Standard—Seventh Edition. Document M7-A7. CLSI, Wayne, Pa., 2006; Clinical Laboratories and Standards Institute. Methods for Antimicrobial Susceptibility Testing of Anaerobic Bacteria; Approved Standard—Sixth Edition. Document M11-A6. CLSI, Wayne, Pa., 2004).
Regarding `CCNC(=O)Nc1nc2cc(-c3cccnc3)cc(-c3nccs3)c2s1` [Example 92, 1-Ethyl-3-(5-pyridin-3-yl-7-thiazol-2-yl-benzothiazol-2-yl)-urea], the MIC is below 0.25 µg/mL.

`CCNC(=O)Nc1nc2cc(-c3ccn(CCN(C)C)c(=O)c3)cc(-c3ccccn3)c2s1` [Example 72, 1-{5-[1-(2-Dimethylamino-ethyl)-2-oxo-1,2-dihydro-pyridin-4-yl]-7-pyridin-2-yl-benzothiazol-2-yl}-3-ethyl-urea]: the MIC is 0.25 to 1 µg/mL (≈ 0.54 to 2.16 µM).

Consider `CCNC(=O)Nc1nc2cc(-c3cccnc3)cc(-c3ccsc3)c2s1` [Example 77, 1-Ethyl-3-(5-pyridin-3-yl-7-thiophen-3-yl-benzothiazol-2-yl)-urea], for which the MIC fell in the range of 0.25 to 1 µg/mL (≈ 0.657 to 2.63 µM).

Take `CCNC(=O)Nc1nc2cc(-c3cccnc3)cc(-c3csc(O)n3)c2s1` [Example 172, 1-Ethyl-3-[7-(2-hydroxy-thiazol-4-yl)-5-pyridin-3-yl-benzothiazol-2-yl]-urea]: the MIC lay within 2 to 16 µg/mL (≈ 5.03 to 40.3 µM).

Consider `CCNC(=O)Nc1nc2cc(-c3cccnc3)cc(-c3ccccc3)c2s1` [Example 78, 1-Ethyl-3-(7-phenyl-5-pyridin-3-yl-benzothiazol-2-yl)-urea], for which the MIC is 0.25 to 1 µg/mL (≈ 0.668 to 2.67 µM).

Regarding `CCNC(=O)Nc1nc2cc(-c3ccnc(OC)c3)cc(-c3ccccn3)c2s1` [Example 40, 1-Ethyl-3-[5-(2-methoxy-pyridin-4-yl)-7-pyridin-2-yl-benzothiazol-2-yl]-urea], the MIC lay within 0.25 to 1 µg/mL (≈ 0.617 to 2.47 µM).

In the case of `CCNC(=O)Nc1nc2cc(-c3cccnc3)cc(-c3nccn3C)c2s1` [Example 162, 1-Ethyl-3-[7-(1-methyl-1H-imidazol-2-yl)-5-pyridin-3-yl-benzothiazol-2-yl]-urea], the MIC lay within 2 to 16 µg/mL (≈ 5.28 to 42.3 µM).

Regarding `CCNC(=O)Nc1nc2cc(-c3cnccn3)cc(-c3cccnc3)c2s1` [Example 43, 1-Ethyl-3-(5-pyrazin-2-yl-7-pyridin-3-yl-benzothiazol-2-yl)-urea], the MIC is 0.25 to 1 µg/mL (≈ 0.664 to 2.66 µM).

As for `CCNC(=O)Nc1nc2cc(-c3ccc(CO)nc3)cc(-c3cccnc3)c2s1` [Example 19, 1-Ethyl-3-[5-(6-hydroxymethyl-pyridin-3-yl)-7-pyridin-3-yl-benzothiazol-2-yl]-urea], the MIC fell in the range of 0.25 to 1 µg/mL (≈ 0.617 to 2.47 µM).

`CCNC(=O)Nc1nc2cc(-c3cccnc3)cc(NC(=O)NCC)c2s1` [Example 150, 1-Ethyl-3-[2-(3-ethyl-ureido)-5-pyridin-3-yl-benzothiazol-7-yl]-urea]: the MIC is 2 to 16 µg/mL (≈ 5.2 to 41.6 µM).

As for `CCNC(=O)Nc1nc2cc(-c3cnc(N(C)C)nc3)cc(-c3cccnc3)c2s1` [Example 25, 1-[5-(2-Dimethylamino-pyrimidin-5-yl)-7-pyridin-3-yl-benzothiazol-2-yl]-3-ethyl-urea], the MIC lay within 0.25 to 1 µg/mL (≈ 0.596 to 2.38 µM).

With `CCNC(=O)Nc1nc2cc(-c3ccc(CO)cc3)cc(-c3ccc(CO)cc3)c2s1` [Example 144, 1-[5,7-Bis-(4-hydroxymethyl-phenyl)-benzothiazol-2-yl]-3-ethyl-urea], the MIC was 0.25 to 1 µg/mL (≈ 0.577 to 2.31 µM).

Consider `C=CCc1cc(-c2cccnc2)cc2nc(NC(=O)NCC)sc12` [Example 156, 1-(7-Allyl-5-pyridin-3-yl-benzothiazol-2-yl)-3-ethyl-urea], for which the MIC is 0.25 to 1 µg/mL (≈ 0.739 to 2.95 µM).

Take `CCNC(=O)Nc1nc2cc(-c3cccnc3)cc(-c3ccc(Cl)cn3)c2s1` [Example 130, 1-[7-(5-Chloro-pyridin-2-yl)-5-pyridin-3-yl-benzothiazol-2-yl]-3-ethyl-urea]: the MIC is below 0.25 µg/mL.

For `CCNC(=O)Nc1nc2cc(-c3cccnc3)cc(-c3ccc4cc[nH]c4n3)c2s1` [Example 111, 1-Ethyl-3-[5-pyridin-3-yl-7-(1H-pyrrolo[2,3-b]pyridin-6-yl)-benzothiazol-2-yl]-urea], the MIC is below 0.25 µg/mL.

On to `CCNC(=O)Nc1nc2cc(-c3cccnc3)cc(-c3cncc(N)n3)c2s1` [Example 123, 1-[7-(6-Amino-pyrazin-2-yl)-5-pyridin-3-yl-benzothiazol-2-yl]-3-ethyl-urea], for which the MIC is below 0.25 µg/mL.

Consider `CCNC(=O)Nc1nc2cc(-c3cccnc3)cc(-c3cncnc3)c2s1` [Example 159, 1-Ethyl-3-(5-pyridin-3-yl-7-pyrimidin-5-yl-benzothiazol-2-yl)-urea], for which the MIC lay in the range of 0.25 to 1 µg/mL (≈ 0.664 to 2.66 µM).

Regarding `CCNC(=O)Nc1nc2cc(-c3cccnc3)cc(-c3cc(C)ccn3)c2s1` [Example 176, 1-Ethyl-3-[7-(4-methyl-pyridin-2-yl)-5-pyridin-3-yl-benzothiazol-2-yl]-urea], the MIC is below 0.25 µg/mL.

Consider `CCNC(=O)Nc1nc2cc(-c3cccnc3)cc(-c3cn[nH]c3)c2s1` [Example 80, 1-Ethyl-3-[7-(1H-pyrazol-4-yl)-5-pyridin-3-yl-benzothiazol-2-yl]-urea], for which the MIC lay within 0.25 to 1 µg/mL (≈ 0.686 to 2.74 µM).

Regarding `CCNC(=O)Nc1nc2cc(-c3cccnc3)cc(-c3cccc(N4CCOCC4)n3)c2s1` [Example 166, 1-Ethyl-3-[7-(6-morpholin-4-yl-pyridin-2-yl)-5-pyridin-3-yl-benzothiazol-2-yl]-urea], the MIC lay within 0.25 to 1 µg/mL (≈ 0.543 to 2.17 µM).

With `CCNC(=O)Nc1nc2cc(-c3cccnc3)cc(-c3cncs3)c2s1` [Example 161, 1-Ethyl-3-(5-pyridin-3-yl-7-thiazol-5-yl-benzothiazol-2-yl)-urea], the MIC is below 0.25 µg/mL.

`CCNC(=O)Nc1nc2cc(-c3cccnc3)cc(-c3ccc(N)cn3)c2s1` [Example 99, 1-[7-(5-Amino-pyridin-2-yl)-5-pyridin-3-yl-benzothiazol-2-yl]-3-ethyl-urea]: the MIC is below 0.25 µg/mL.

As for `CCNC(=O)Nc1nc2cc(Br)cc(-c3ccc(N)nc3)c2s1` [Example 1, 1-[7-(6-Amino-pyridin-3-yl)-5-bromo-benzothiazol-2-yl]-3-ethyl-urea], the MIC was in the range of 2 to 16 µg/mL (≈ 5.1 to 40.8 µM).

Regarding `CCNC(=O)Nc1nc2cc(-c3ccc(NC(=O)CN(C)C)nc3)cc(-c3ccccn3)c2s1` [Example 66, 2-Dimethylamino-N-{5-[2-(3-ethyl-ureido)-7-pyridin-2-yl-benzothiazol-5-yl]-pyridin-2-yl}-acetamide], the MIC fell in the range of 0.25 to 1 µg/mL (≈ 0.526 to 2.1 µM).

On to `CCNC(=O)Nc1nc2cc(-c3ccc(CC(=O)OC)nc3)cc(-c3ccccn3)c2s1` [Example 69, {5-[2-(3-Ethyl-ureido)-7-pyridin-2-yl-benzothiazol-5-yl]-pyridin-2-yl}-acetic acid methyl ester], for which the MIC was below 0.25 µg/mL.

As for `CCNC(=O)Nc1nc2cc(-c3ccc(C(=O)OC)nc3)cc(-c3cccnc3)c2s1` [Example 26, 5-[2-(3-Ethyl-ureido)-7-pyridin-3-yl-benzothiazol-5-yl]-pyridine-2-carboxylic acid methyl ester], the MIC was in the range of 0.25 to 1 µg/mL (≈ 0.577 to 2.31 µM).

`CCNC(=O)Nc1nc2cc(-c3ccc(N4CCN(C)CC4)nc3)cc(-c3cccnc3)c2s1` [Example 23, 1-Ethyl-3-{5-[6-(4-methyl-piperazin-1-yl)-pyridin-3-yl]-7-pyridin-3-yl-benzothiazol-2-yl}-urea]: the MIC lay within 2 to 16 µg/mL (≈ 4.22 to 33.8 µM).

For the compound `CCNC(=O)Nc1nc2cc(-c3cncc(OC)c3)cc(-c3ccccn3)c2s1` [Example 179, 1-Ethyl-3-[5-(5-methoxy-pyridin-3-yl)-7-pyridin-2-yl-benzothiazol-2-yl]-urea], the MIC is below 0.25 µg/mL.

Consider `CCNC(=O)Nc1nc2cc(-c3cccnc3)cc(-c3ncccc3OC)c2s1` [Example 118, 1-Ethyl-3-[7-(3-methoxy-pyridin-2-yl)-5-pyridin-3-yl-benzothiazol-2-yl]-urea], for which the MIC is below 0.25 µg/mL.

In the case of `CCNC(=O)Nc1nc2cc(-c3cccnc3)cc(-c3sc(C)nc3C)c2s1` [Example 102, 1-[7-(2,4-Dimethyl-thiazol-5-yl)-5-pyridin-3-yl-benzothiazol-2-yl]-3-ethyl-urea], the MIC lay within 0.25 to 1 µg/mL (≈ 0.61 to 2.44 µM).

As to `CCNC(=O)Nc1nc2cc(-c3cncc(OC)c3)cc(-c3cncc(OC)c3)c2s1` [Example 143, 1-[5,7-Bis-(5-methoxy-pyridin-3-yl)-benzothiazol-2-yl]-3-ethyl-urea], the MIC is 0.25 to 1 µg/mL (≈ 0.574 to 2.3 µM).

Take `CCNC(=O)Nc1nc2cc(-c3cccnc3)cc(-c3cnccn3)c2s1` [Example 101, 1-Ethyl-3-(7-pyrazin-2-yl-5-pyridin-3-yl-benzothiazol-2-yl)-urea]: the MIC was below 0.25 µg/mL.

For `CCNC(=O)Nc1nc2cc(-c3cccnc3)cc(-c3cccc(CO)n3)c2s1` [Example 104, 1-Ethyl-3-[7-(6-hydroxymethyl-pyridin-2-yl)-5-pyridin-3-yl-benzothiazol-2-yl]-urea], the MIC is below 0.25 µg/mL.

On to `CCNC(=O)Nc1nc2cc(-c3cccnc3)cc(-c3ncccc3C#N)c2s1` [Example 95, 1-[7-(3-Cyano-pyridin-2-yl)-5-pyridin-3-yl-benzothiazol-2-yl]-3-ethyl-urea], for which the MIC was below 0.25 µg/mL.

On to `CCNC(=O)Nc1nc2cc(-c3cccnc3)cc(-c3cccnc3OC)c2s1` [Example 85, 1-Ethyl-3-[7-(2-methoxy-pyridin-3-yl)-5-pyridin-3-yl-benzothiazol-2-yl]-urea], for which the MIC was 0.25 to 1 µg/mL (≈ 0.617 to 2.47 µM).

On to `CCNC(=O)Nc1nc2cc(-c3cccnc3)cc(-c3ccccc3OC)c2s1` [Example 87, 1-Ethyl-3-[7-(2-methoxy-phenyl)-5-pyridin-3-yl-benzothiazol-2-yl]-urea], for which the MIC lay in the range of 0.25 to 1 µg/mL (≈ 0.618 to 2.47 µM).

Turning to `CCNC(=O)Nc1nc2cc(-c3cccnc3)cc(-c3nccc4cc[nH]c34)c2s1` [Example 115, 1-Ethyl-3-[5-pyridin-3-yl-7-(1H-pyrrolo[2,3-c]pyridin-7-yl)-benzothiazol-2-yl]-urea], the MIC is below 0.25 µg/mL.

On to `CCNC(=O)Nc1nc2cc(-c3ccc4nccn4c3)cc(-c3cccnc3)c2s1` [Example 22, 1-Ethyl-3-(5-imidazo[1,2-a]pyridin-6-yl-7-pyridin-3-yl-benzothiazol-2-yl)-urea], for which the MIC lay within 0.25 to 1 µg/mL (≈ 0.603 to 2.41 µM).
